These results are taken from PubChem BioAssay (NCI).

The GI50 is the concentration at which growth is held to half of that of the control. Usually TGI stands for the concentration giving total growth inhibition. Read a high TGI as lower sensitivity of the cells.

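96-well plates; 48 h exposure; 5 concentrations. Endpoints by linear interpolation between flanking doses. Not reached: highest tested concentration assigned. GI50: concentration for 50% inhibition of growth. TGI: total growth inhibition.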

Some test systems named below: ACHN renal; CAKI-1 renal; DU-145 prostate; HCT-15 colon; OVCAR-5 ovarian; PC-3 prostate; RPMI-8226 leukemia; SK-MEL-2 melanoma; SK-MEL-28 melanoma; SNB-75 CNS.
Holding throughout (assay): DTP human tumour cell line panel, 48 h

For `CC(C)C[C@H](NC(=O)Cn1ccc(NCc2ccccc2)cc1=O)B(O)O`, the GI50 in the test on ACHN renal is 0.427 µM; in the test with CAKI-1 renal it was 0.499 µM; with DU-145 prostate, 5.48 µM; in the test with HCT-15 colon it was 2.62 µM; in the test with OVCAR-5 ovarian, 5.29 µM; with PC-3 prostate, 5.86 µM. In addition, the GI50 with RPMI-8226 leukemia was 0.304 µM; in the test on SK-MEL-2 melanoma, 1.85 µM; with SK-MEL-28 melanoma, 0.6 µM; in the test with SNB-75 CNS it was 2.33 µM. The TGI with ACHN renal is more than 100 µM; in the test on CAKI-1 renal, 12.8 µM; in the test with DU-145 prostate, more than 100 µM; in the test on HCT-15 colon, more than 41.6 µM; with OVCAR-5 ovarian, more than 100 µM; with PC-3 prostate it was 98.9 µM. Also, the total growth inhibition concentration (TGI) in the test on SK-MEL-2 melanoma came to 14.8 µM; in the test with SK-MEL-28 melanoma it was 47 µM; in the test on SNB-75 CNS, 9.72 µM.
Consider `CNC/C(Cl)=N/S(=O)(=O)c1ccc(C)cc1`, for which the TGI is 35.8 µM with ACHN renal; 26.2 µM in the test with CAKI-1 renal; 18.1 µM with DU-145 prostate; more than 100 µM with HCT-15 colon; 47.5 µM with OVCAR-5 ovarian; 22.8 µM with PC-3 prostate. Further, the TGI in the test on RPMI-8226 leukemia is 33.5 µM; with SK-MEL-2 melanoma, 34.4 µM; in the test with SK-MEL-28 melanoma, more than 100 µM; in the test on SNB-75 CNS, 18.4 µM.
On to `C=C1C(=O)O[C@H]2[C@H]1CC/C(COC(=O)C(=O)c1cn(C)c3ccc(Cl)cc13)=C\CC[C@@]1(C)O[C@@H]21`, for which the GI50 was 1.07 µM in the test with ACHN renal; 1.71 µM with CAKI-1 renal; 1.69 µM in the test with DU-145 prostate; 0.209 µM in the test on HCT-15 colon; 1.91 µM in the test with OVCAR-5 ovarian; 1.41 µM in the test with PC-3 prostate. Also, the GI50 in the test with RPMI-8226 leukemia is 0.306 µM; in the test on SK-MEL-2 melanoma, 1.39 µM; with SK-MEL-28 melanoma it was 1.49 µM; in the test with SNB-75 CNS it was 1.61 µM. Besides, the TGI with ACHN renal was found to be 2.5 µM; with CAKI-1 renal, 4.54 µM; in the test on DU-145 prostate it was 3.63 µM; with HCT-15 colon it was 0.5 µM; with OVCAR-5 ovarian, 5.82 µM; in the test on PC-3 prostate, 3.32 µM. In addition, the total growth inhibition concentration (TGI) in the test on RPMI-8226 leukemia is 1.19 µM; in the test on SK-MEL-2 melanoma it was 3.61 µM; in the test with SK-MEL-28 melanoma, 3.72 µM; in the test on SNB-75 CNS, 3.8 µM.
For the molecule `COc1ccc(-c2cc(-c3ccc(Cl)cc3)nc(SCCCC(=O)NO)n2)cc1`, the GI50 with ACHN renal is 0.379 µM; in the test on CAKI-1 renal it was 0.284 µM; with DU-145 prostate, 0.826 µM; in the test on HCT-15 colon, 0.413 µM; in the test on OVCAR-5 ovarian, 1.37 µM; in the test on PC-3 prostate it was 0.874 µM. In addition, the GI50 in the test on RPMI-8226 leukemia is 0.771 µM; in the test on SK-MEL-2 melanoma, 2.42 µM; in the test on SK-MEL-28 melanoma, 1.69 µM; with SNB-75 CNS, 1.22 µM. For the same molecule, the TGI in the test on ACHN renal was found to be 1.88 µM; in the test with CAKI-1 renal, 1.29 µM; in the test with DU-145 prostate, 6 µM; in the test with HCT-15 colon, 1.7 µM; with OVCAR-5 ovarian, 6.92 µM; in the test with PC-3 prostate, 3.61 µM. For the same molecule, the TGI with RPMI-8226 leukemia is more than 24.9 µM; with SK-MEL-2 melanoma, 6.94 µM; in the test on SK-MEL-28 melanoma it was 5.47 µM; in the test on SNB-75 CNS, 5.61 µM.
With `C=C1C(C2(C)C(OC(C)=O)CC(=O)OC(C)(COC(C)=O)C2CC(=O)OC)C(OC=O)C(OC(=O)C(O)C(C)CC)C2(C)C(c3ccoc3)CC(=O)C12O` (stereo not drawn), the TGI in the test on ACHN renal was more than 52.8 µM; with CAKI-1 renal, 11.7 µM; in the test with DU-145 prostate, more than 100 µM; in the test with HCT-15 colon it was more than 100 µM; in the test on OVCAR-5 ovarian it was more than 100 µM; in the test on PC-3 prostate it was more than 100 µM. The TGI in the test on RPMI-8226 leukemia, in the test with SK-MEL-2 melanoma, in the test with SK-MEL-28 melanoma and in the test on SNB-75 CNS was more than 100 µM throughout.
On to `Cc1cc(O)cc2c1[C@]1(C)CCC3C(C)(C)CCC[C@]3(C)[C@H]1C2` (stereo partly drawn), for which the GI50 with ACHN renal is 19.1 µM; in the test on CAKI-1 renal, 18.1 µM; with DU-145 prostate it was 19.1 µM; in the test on HCT-15 colon, 19.9 µM; in the test with OVCAR-5 ovarian, 21.4 µM; in the test on PC-3 prostate, 24.7 µM. Also, the GI50 with RPMI-8226 leukemia was 29.6 µM; with SK-MEL-2 melanoma it was 26.2 µM; with SK-MEL-28 melanoma, 20.4 µM; in the test with SNB-75 CNS, 17.9 µM. Further, the TGI amounted to 33.3 µM in the test on ACHN renal; 31.9 µM in the test with CAKI-1 renal; 35 µM with DU-145 prostate; 38.1 µM in the test on HCT-15 colon; 37.2 µM in the test with OVCAR-5 ovarian; 65.1 µM in the test with PC-3 prostate. The TGI in the test on RPMI-8226 leukemia was determined as 74.7 µM; in the test on SK-MEL-2 melanoma, 52.7 µM; in the test on SK-MEL-28 melanoma it was 36.7 µM; with SNB-75 CNS, 34.2 µM.
For `CCN(Cc1ccccc1)c1ccc(CO)c(Cl)c1`, the GI50 is 30.2 µM with ACHN renal; 0.845 µM in the test on CAKI-1 renal; 22.5 µM in the test on DU-145 prostate; 13.8 µM in the test with HCT-15 colon; 0.164 µM in the test on OVCAR-5 ovarian; 18.2 µM with PC-3 prostate. In addition, the GI50 with RPMI-8226 leukemia is 5.53 µM; in the test with SK-MEL-2 melanoma, 3.79 µM; in the test with SK-MEL-28 melanoma, 29.2 µM; in the test on SNB-75 CNS, 13.6 µM. Further, the TGI was more than 100 µM in the test on ACHN renal; 21.4 µM in the test with CAKI-1 renal; more than 59.4 µM in the test with DU-145 prostate; more than 100 µM in the test on HCT-15 colon; 0.593 µM in the test on OVCAR-5 ovarian; more than 53.6 µM with PC-3 prostate. The TGI is 44.7 µM in the test with RPMI-8226 leukemia, 24.7 µM with SK-MEL-2 melanoma, more than 100 µM in the test on SK-MEL-28 melanoma and 69.7 µM in the test with SNB-75 CNS.
In the case of `C/C(=N\Nc1cc(C)c2ccccc2n1)c1ccccn1`, the GI50 was less than 0.0374 µM in the test with ACHN renal; 0.107 µM with DU-145 prostate; less than 0.0493 µM in the test with HCT-15 colon; 0.0706 µM with OVCAR-5 ovarian; 0.0821 µM in the test on PC-3 prostate; 0.112 µM in the test with RPMI-8226 leukemia. The GI50 in the test on SK-MEL-2 melanoma is 0.357 µM; in the test with SK-MEL-28 melanoma it was 0.362 µM; in the test with SNB-75 CNS it was 0.212 µM. Further, the TGI stood at 1.14 µM in the test on ACHN renal; 0.544 µM with CAKI-1 renal; 12.4 µM with DU-145 prostate; 1.81 µM with HCT-15 colon; 5.26 µM with OVCAR-5 ovarian; 4.5 µM in the test with PC-3 prostate. Also, the TGI was 2.01 µM in the test on RPMI-8226 leukemia, 11.1 µM in the test on SK-MEL-2 melanoma, 1.96 µM with SK-MEL-28 melanoma and 5.4 µM with SNB-75 CNS.
